Measurements: patent US20210023223A1, “HYDROCARBON / LIPID - CAROTENOID COMPLEXES” (IP SCIENCE LIMITED, priority 2018, published 2021)

Columns and labels:
[1] = Size of Olive oil lipid droplets, microscopy; format: physicochemical; design: Olive oil lipid droplets, Droplet square: unit not given here
Protocol: For measurement of lipid droplets and fat globules and quantification of their size binocular microscope Olympus BX41 was used with Cell^B software for morphometric analysis. All parameters were collected from 10 randomly selected microscopic fields at ×1000).
When lycopene was added to olive oil, rich with monounsaturated fatty acids, it increased the size of its lipid droplets in a dose-dependent manner, and table 4.

[2] = Spreadability of oil drops on the surface of water; format: physicochemical
Protocol: 1. A petri dish of 13.5 cm diameter was filled to the brim with unheated water.
2. 0.3 ml of Olive or Sunflower oil was dropped onto the surface from a standardised height (30 cm) using a 1 ml pipette.
3. The resultant droplets were photographed and measured 30 sec after impact.
4. For increased reliability, the procedure was repeated 5 times.
5. Steps 1-4 were then repeated for Olive and Sunflower oils with or without carotenoids in different concentrations.

[3] = tested on: B10.MLM cells (alveolar macrophages); experiment: Transmission electron microscopy of cells; format: cell-based; conditions: 48 hours
Protocol: B10.MLM cells were cultured with or without lycopene for 48 hours and then harvested from the plates with trypsin-versene solution. Cell pellets obtained by centrifugation for 10 min at 1500 r.p.m. (Rotanta 460R; Hettich) were fixed with Ito-Karnovsky fixative solution, followed by post-fixation with OsO4 and treatment with aqueous uranyl acetate to provide contrast. The specimens were subsequently dehydrated in an ascending series of alcohol concentrations (50, 70, 96 and 100% ethanol), infiltrated with a 1:1 (v/v) mixture of LR White resin and 100% ethanol for 1 h and in a pure resin for 12 h at 4° C. Resin polymerization was performed at 56° C. for 24 h. Ultrathin sections were prepared, treated with a lead solution to provide contrast (Reynolds, 1963) and analysed using a JEOL 100B transmission electron microscope with an accelerating voltage of 80 kV (Jeol, Japan).

[4] = lycopene dose 0.1 per 30 g of Olive oil
[5] = lycopene dose 0.5 per 30 g of Olive oil
[6] = lycopene dose 1.0 per 30 g of Olive oil
[7] = lycopene dose 2.0 per 30 g of Olive oil
[8] = lycopene dose 3.5 per 30 g of Olive oil
[9] = lycopene dose 7.0 per 30 g of Olive oil
[10] = lycopene dose 10.0 per 30 g of Olive oil

## CC(C)=CCC/C(C)=C/C=C/C(C)=C/C=C/C(C)=C/C=C/C=C(C)/C=C/C=C(C)/C=C/C=C(\C)CCC=C(C)C [Lycopene]
[1]; [4]
  Olive oil lipid droplets, Droplet square: 27.2
  Size of Olive oil lipid droplets, Mean: 46.24 μm
[1]; [5]
  Olive oil lipid droplets, Droplet square: 36.36
  Size of Olive oil lipid droplets, Mean: 40.00 μm
[1]; [6]
  Olive oil lipid droplets, Droplet square: 10.29
  Size of Olive oil lipid droplets, Mean: 185.13 μm
[1]; [7]
  Olive oil lipid droplets, Droplet square: 17.39
  Size of Olive oil lipid droplets, Mean: 260.80 μm
[1]; [8]
  Olive oil lipid droplets, Droplet square: 24.05
  Size of Olive oil lipid droplets, Mean: 457.00 μm
[1]; [9]
  Olive oil lipid droplets, Droplet square: 61.31
  Size of Olive oil lipid droplets, Mean: 490.50 μm
[1]; [10]
  Olive oil lipid droplets, Droplet square: 36.77
  Size of Olive oil lipid droplets, Mean: 367.70 μm
[1]; olive oil
  Increase in lipid droplet diameter, could reach: 20 fold
[2]; 1 molecule of lycopene within about 120,000 molecules of oil lipids
  Diameter of spread lipid drops relative to intact oil: 6-8 fold
[2]; olive oil
  Increase of spreadability on the surface of the water: 11 fold
[3]
  Mitochondrial structures: significantly increased both in size and their numbers
